The source of these data is patent US20070275046A1, “Noval Surfactants and Applications Thereof” (TS PHARMA, priority 2003, published 2007).

Format in all cases: physicochemical
Series [1] in a line: Phase transition temperature by polarization spectrofluorimetry (DPH probe) and light scattering. As to conditions: polarization of fluorescent probe DPH. The procedure: (§1) The size and the mechanical stability over time of the particles obtained in the solution were measured after dynamic light diffraction filtration (High Performance Particle Sizer, Malvern). The nature of the particles obtained was studied by transmission electron microscopy after negative staining of the sample or after freeze-fracture. The critical aggregation concentration of these surfactants was determined by tensiometry or by spectrofluorimetry using the fluorescent label method. Furthermore, the Wilhelmy tensiometry technique made it possible to determine the maximum surface tensions and the area of the polar head at the water-air interface (FIG. 8). […] In order to cause this value to decrease or increase, it is necessary to, respectively, increase or decrease the length of the hydrocarbon-based chains. The phase transition temperature of these surfactants was determined by polarization spectrofluorimetry and by light scattering (FIG. 9).
With R=C17H35 (derivative A1). The phase transition temperature was measured via detection of the polarization of a fluorescent probe, DPH, by spectrofluorimetry: Tm=54° C.

Series [2] can be described thus: Mechanical stability over time of the particles (particle size on storage). The procedure: (§2) The size and the mechanical stability over time of the particles obtained in the solution were measured after filtration by dynamic light diffraction (High Performance Particle Sizer, Malvern). The nature of the particles obtained was studied by transmission electron microscopy after negative staining of the sample or after freeze-fracture (FIG. 4).
as §1

A short description of series [3]: Shape and size of tubular vesicles from transmission electron micrographs (negative staining, freeze-fracture). The procedure: as §2
The freeze-fracture analyses confirmed the formation of these tubular vesicles and their morphological characteristics, namely the presence of an inner aqueous cavity isolated from the outside medium (FIG. 5).
The freeze-fracture analyses confirmed the formation of these tubular vesicles and their morphological characteristics, i.e. the presence of an inner aqueous cavity isolated from the outside medium.

Series [4] can be described thus: Release kinetics of encapsulated carboxyfluorescein by spectrofluorimetry. The settings on record: compared with encapsulation in egg yolk phosphatidylcholine; 25° C., Tris buffer pH 7.4, 4 h. The procedure: The encapsulation capacity of the various compounds is determined by spectrofluorimetry using a fluorescent probe: 5 (6)-carboxyfluorescein. The release of this fluorescent label from the vesicles prepared according to standardized methods is measured.
This study requires the preparation of a Tris buffer (15 mM and 150 mM NaCl) at pH 7.4, and also of a 120 mM carboxyfluorescein solution, also at pH 7.4.
The compounds studied are weighed out (2.5 mg/ml) and are dissolved in a minimum amount of methanol. The solvent is evaporated off under reduced pressure in a rotary evaporator and the film thus obtained is dried with a stream of nitrogen. […]
The fluorescence measurements were carried out using a Jobin-Yvon spectrofluorimeter (spectrofluoromax 2), equipped with a 150 W xenon lamp. […] The samples were analyzed at an excitation wavelength of 480 nm, and an emission wavelength of 530 nm for 4 hours. […]
For each measurement, the initial fluorescence intensity (F0) is determined 30 seconds after the column filtration. The release is studied over a period of 4 h and the fluorescence intensity (Ft) is measured at regular intervals. The maximum fluorescence intensity (Fmax), which corresponds to 100% release, is obtained after tubular vesicle lysis obtained by the addition of Triton X100 (10% v/v). […]

The nature of series [5]: Particle size by dynamic light diffraction / photon correlation spectroscopy (Malvern HPPS). The procedure:
as §2
The size and the mechanical stability over time of the particles obtained in the solution were measured after dynamic light diffraction filtration (High Performance Particle Sizer, Malvern). The nature of the particles obtained was studied by transmission electron microscopy after negative staining of the sample or after freeze-fracture. The critical aggregation concentration of these surfactants was determined by tensiometry or by spectrofluorimetry using the fluorescent label method. […] The phase transition temperature of these surfactants was determined by polarization spectrofluorimetry and by light scattering (FIG. 9).
The size distribution of the particles was measured by photon correlation spectroscopy of light of samples diluted in water using a Malvern HPPS/NIBS device equipped with a 3 mW He/Ne laser and a 288-channel correlator equipped with an avalanche of photodiodes. […]

In the case of `CCCCCCCCCCCCCCCCCNC(=O)OCC(CNC(=O)CCSCCC(=O)NC(CO)(CO)CO)OC(=O)NCCCCCCCCCCCCCCCCC` (centres unmarked) [A1], the “phase transition temperature Tm” value in series [1] was 54 °C. For the same compound, in series [2] (aqueous dispersion of tubular vesicles), the “change in particle size on storage” value was “no change in particle size is observed after one year of storage”. In addition, in series [3], the “average cross section of the tubular vesicles” value was 38 nm and the “average length of the tubular vesicles” value is 247 nm. In addition, the “release kinetics of encapsulated carboxyfluorescein” value in series [4] is reported as “slower release kinetics”. Besides, the “mean hydrodynamic diameter of the tubular vesicles” value in series [5] (tubular vesicles from lipid dispersed in water at 2.5 mg.ml^-1, measured by light diffraction) turned out to be 132 nm. Besides, the IP in series [5] (tubular vesicles, light diffraction, printed with the mean hydrodynamic diameter) was 0.35.

On to `CCCCCCCCCCCCCCCCCC(=O)OCC(CNC(=O)CCSCCC(=O)NC(CO)(CO)CO)OC(=O)CCCCCCCCCCCCCCCCC` (centres unmarked) [B, reference compound], for which the “mechanical stability of the liposomes formed in water” value in series [2] (liposomes with conventional structures) is on record as “only a few hours”.
